Experimental data: PubChem BioAssay (NCI)
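All cell lines were grown in 96-well plates and treated with compound for 48 hours. Here, GI50 denotes the concentration required for 50% inhibition of growth. TGI: total growth inhibition.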

What was measured:
Assay in all cases: DTP human tumour cell line panel, 48 h
786-0 renal = system: 786-0 renal
EKVX NSCLC = system: EKVX NSCLC
IGROV1 ovarian = system: IGROV1 ovarian
NCI/ADR-RES ovarian = system: NCI/ADR-RES ovarian
OVCAR-3 ovarian = system: OVCAR-3 ovarian
OVCAR-5 ovarian = system: OVCAR-5 ovarian
RPMI-8226 leukemia = system: RPMI-8226 leukemia
SK-MEL-5 melanoma = system: SK-MEL-5 melanoma
SNB-19 CNS = system: SNB-19 CNS
SR leukemia = system: SR leukemia

Row | Compound | GI50 (786-0 renal) [µM] | TGI (786-0 renal) [µM] | GI50 (EKVX NSCLC) [µM] | TGI (EKVX NSCLC) [µM] | GI50 (IGROV1 ovarian) [µM] | TGI (IGROV1 ovarian) [µM] | GI50 (NCI/ADR-RES ovarian) [µM] | TGI (NCI/ADR-RES ovarian) [µM] | GI50 (OVCAR-3 ovarian) [µM] | TGI (OVCAR-3 ovarian) [µM] | GI50 (OVCAR-5 ovarian) [µM] | TGI (OVCAR-5 ovarian) [µM] | GI50 (RPMI-8226 leukemia) [µM] | TGI (RPMI-8226 leukemia) [µM] | GI50 (SK-MEL-5 melanoma) [µM] | TGI (SK-MEL-5 melanoma) [µM] | GI50 (SNB-19 CNS) [µM] | TGI (SNB-19 CNS) [µM] | GI50 (SR leukemia) [µM] | TGI (SR leukemia) [µM]
1 | COc1ccc(CNc2nc3cc(N)cc(N)c3nc2-c2ccccc2)cc1OC | 15.7 | 33.5 | 13 | 44.6 | 13.5 | 38.1 | 17.7 | 58.2 | 1.31 | 3.33 | 20.6 | 38.9 | 3.14 | 13.5 | 9.27 | 25.3 | 20.1 | > 61 | 2.94 | 25.9
2 | Clc1ccc(-n2nnc(C3=NCCCN3)c2-c2ccccc2)cc1 |  | > 100 |  | > 100 |  | > 100 |  |  |  | > 100 |  | > 100 |  | > 100 |  | > 100 |  | > 100 |  | > 100
3 | C=C1C[C@@H]2C/C=C/C(=O)C/C(C)=C\C=C\C(=O)O[C@H](C=O)C/C(C)=C/[C@H](C1)O2 | 0.783 | 18.3 | 3.68 | 21.2 | 1.16 | 21.7 | 2.58 | > 100 | 0.557 | 24.4 | 2.31 | 13.5 | 0.295 | 3.29 | 2.62 | 16.6 | 4.34 | 24.8 | 1.18 | 6.77
4 | CC1(C)COCN1COC1CCCCC1 |  | > 100 |  | > 100 |  | > 100 |  | > 100 |  | > 100 |  | > 100 |  | > 100 |  | > 100 |  | > 100 |  | 44
5 | c1cc2c(cc1C(N1CCNCC1)N1CCNCC1)OCO2 |  | > 100 |  | > 100 |  | > 100 |  | > 100 |  | > 100 |  | > 100 |  | > 100 |  | > 100 |  | > 100 |  | > 100
6 | CC(C)(C)C(=O)Nc1ccccc1I(=O)=O | > 100 | > 100 | > 100 | > 100 | > 100 | > 100 | > 100 | > 100 | > 100 | > 100 | > 100 | > 100 | > 100 | > 100 | > 100 | > 100 | > 100 | > 100 | 26 | > 100
7 | COc1ccc(/C=C2\CN(C(=O)C(Cl)Cl)C/C(=C\c3ccc(OC)c(OC)c3)C2=O)cc1OC | 0.326 | 1.19 | 0.366 | 1.87 | 0.321 | 1.75 | 0.0864 | > 67.5 |  |  |  |  | 0.0306 | 0.155 | 0.199 | 0.54 |  |  | 0.0352 | > 100
8 | Cc1nc2c(=O)[nH]c(=O)n(C)c2[nH]c1=O |  | > 100 |  | > 100 |  | > 100 |  |  |  | > 100 |  | > 100 |  | > 100 |  | > 100 |  | > 100 |  | > 100
